Laboratory results reported in US10717716B2, “1,3,4-oxadiazole derivative compounds as histone deacetylase 6 inhibitor, and the pharmaceutical composition comprising the same” (Chong Kun Dang Pharmaceutical Corp., priority 2015, dated 2020).

Biological target: T1, human recombinant HDAC6 (Homo sapiens, UniProt Q9UBN7)
T1 construct: purchased Calbiochem 382180
T1 sequence (Q9UBN7 1-1215): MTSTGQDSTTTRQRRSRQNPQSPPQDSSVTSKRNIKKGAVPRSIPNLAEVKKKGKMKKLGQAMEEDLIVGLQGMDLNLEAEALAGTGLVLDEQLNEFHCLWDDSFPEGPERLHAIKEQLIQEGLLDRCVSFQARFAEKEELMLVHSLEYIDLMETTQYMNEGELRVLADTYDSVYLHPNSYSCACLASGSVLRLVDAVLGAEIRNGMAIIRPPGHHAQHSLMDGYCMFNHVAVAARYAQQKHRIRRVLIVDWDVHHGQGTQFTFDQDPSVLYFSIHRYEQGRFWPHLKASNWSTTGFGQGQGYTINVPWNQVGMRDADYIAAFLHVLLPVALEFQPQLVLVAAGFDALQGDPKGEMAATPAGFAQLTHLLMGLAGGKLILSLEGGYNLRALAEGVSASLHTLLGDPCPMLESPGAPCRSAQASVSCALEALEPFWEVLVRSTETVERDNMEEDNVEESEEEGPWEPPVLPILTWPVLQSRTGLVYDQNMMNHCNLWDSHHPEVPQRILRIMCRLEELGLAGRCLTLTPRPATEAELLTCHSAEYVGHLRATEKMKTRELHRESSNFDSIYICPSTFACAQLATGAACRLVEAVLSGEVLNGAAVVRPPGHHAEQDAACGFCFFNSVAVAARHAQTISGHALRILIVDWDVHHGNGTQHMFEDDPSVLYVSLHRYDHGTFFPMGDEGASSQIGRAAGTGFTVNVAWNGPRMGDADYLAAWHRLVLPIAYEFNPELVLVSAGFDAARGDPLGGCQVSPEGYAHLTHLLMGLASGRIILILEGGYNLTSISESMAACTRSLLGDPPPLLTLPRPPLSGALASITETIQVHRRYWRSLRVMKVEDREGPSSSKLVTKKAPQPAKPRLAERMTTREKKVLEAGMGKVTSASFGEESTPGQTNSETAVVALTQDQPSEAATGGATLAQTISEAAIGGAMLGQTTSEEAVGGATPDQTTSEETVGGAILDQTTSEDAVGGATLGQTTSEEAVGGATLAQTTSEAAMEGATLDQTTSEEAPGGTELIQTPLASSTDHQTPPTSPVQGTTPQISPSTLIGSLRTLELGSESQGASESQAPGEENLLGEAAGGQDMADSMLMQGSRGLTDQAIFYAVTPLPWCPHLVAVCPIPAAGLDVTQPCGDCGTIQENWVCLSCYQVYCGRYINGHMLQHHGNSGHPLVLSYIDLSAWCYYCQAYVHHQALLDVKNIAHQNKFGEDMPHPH
Experiment: HDAC6 enzyme activity inhibition assay (HDAC Fluorimetric Drug Discovery Kit)
Format: biochemical
Conditions: for HDAC6 selectivity (fold): HDAC6 over HDAC1; for IC50: human recombinant HDAC6, same protocol as HDAC1, read-out: HDAC6
Description: In order to examine the HDAC6 selectivity of the compounds of formula I of the present invention by HDAC1 and HDAC6 enzymatic activity inhibition assays, an experiment was performed using a conventional substance as a control.
HDAC enzyme activity was measured using a HDAC Fluorimetric Drug Discovery Kit (BML-AK511, 516, Enzo Life Science). For the HDAC1 enzyme activity test, human recombinant HDAC1 (BML-SE456) was used as an enzyme source, and Fluor de Lys®-“SIRT1 (BNL-KI177) was used as a substrate. A 5-fold dilution of the compound was seeded into a 96-well plate, and then 0.3 μg of the enzyme and 10 μM of the substrate were added to each well of the plate and allowed to react at 30° C. for 60 minutes. Then, Fluor de Lys®-Developer II (BML-KI176) was added thereto and allowed to react for 30 minutes, after which the fluorescence value (Ex 360, Em 460) was measured using a multi-plate reader (Flexstation 3, Molecular Device). The HDAC6 enzyme was tested using human recombinant HDAC6 (382180) (Calbiochem) according to the same protocol as the HDAC1 enzyme activity test method. Based on the resulting values, each IC5, value was calculated using GraphPad Prism4.0 program.

| SMILES | HDAC6 selectivity (fold) | IC50 |
| --- | --- | --- |
| CCN1CCN(C(=O)N(Cc2ccc(-c3nnc(C(F)F)o3)cc2F)c2ccc(Cl)cc2)CC1 [Compound 21881, N-(4-Chlorophenyl)-N-(4-(5-(difluoromethyl)-1,3,4-oxadiazol-2-yl)-2-fluorobenzyl)-4-ethylpiperazine-1-carboxamide] | 204 fold | 49 nM |
| CN(CCO)C(=O)N(Cc1ccc(-c2nnc(C(F)F)o2)cc1)c1ccccc1 [Compound 21585, 1-(4-(5-(Difluoromethyl)-1,3,4-oxadiazol-2-yl)benzyl)-3-(2-hydroxyethyl)-3-methyl-1-phenylurea] | 370 fold | 27 nM |
| O=C(N1CCOCC1)N(Cc1ccc(-c2nnc(C(F)(F)F)o2)cc1)c1cccc(C(F)(F)F)c1 [Compound 21405, N-(4-(5-(trifluoromethyl)-1,3,4-oxadiazol-2-yl)benzyl)-N-(3-(trifluoromethyl)phenyl)morpholine-4-carboxamide] | 28 fold | 354 nM |
| CCN1CCN(C(=O)N(Cc2ccc(-c3nnc(C(F)F)o3)cc2)c2cccc(F)c2)CC1 [Compound 21883, N-(4-(5-(Difluoromethyl)-1,3,4-oxadiazol-2-yl)benzyl)-4-ethyl-N-(3-fluorophenyl)piperazine-1-carboxamide] | 268 fold | 37 nM |
| O=C(NC1CCCC1)N(Cc1ccc(-c2nnc(C(F)(F)F)o2)cc1)c1ccccc1 [Compound 21341, 3-Cyclopentyl-1-phenyl-1-(4-(5-(trifluoromethyl)-1,3,4-oxadiazol-2-yl)benzyl)urea] | 8 fold | 1190 nM |
| O=C(N1CCN(C2COC2)CC1)N(Cc1ccc(-c2nnc(C(F)F)o2)cc1)c1cccc(Cl)c1 [Compound 21942, N-(3-Chlorophenyl)-N-(4-(5-(difluoromethyl)-1,3,4-oxadiazol-2-yl)benzyl)-4-(oxetan-3-yl)piperazine-1-carboxamide] | 160 fold | 62 nM |
| CC(C)(C)N1CCN(C(=O)N(Cc2ccc(-c3nnc(C(F)(F)F)o3)cc2)c2ccccc2)CC1 [Compound 21381, 4-(Tert-butyl)-N-phenyl-N-(4-(5-(trifluoromethyl)-1,3,4-oxadiazol-2-yl)benzyl)piperazine-1-carboxamide] | 76 fold | 132 nM |
| O=C(NCCN1CCC(N2CCOCC2)CC1)N(Cc1ccc(-c2nnc(C(F)F)o2)cc1F)c1ccccc1 [Compound 22003, 1-(4-(5-(Difluoromethyl)-1,3,4-oxadiazol-2-yl)-2-fluorobenzyl)-3-(2-(4-morpholinopiperidin-1-yl)ethyl)-1-phenylurea] | 99 fold | 101 nM |
| CCN(CC)c1ccc(N(Cc2ccc(-c3nnc(C(F)F)o3)cc2F)C(=O)N2CCS(=O)(=O)CC2)cc1 [Compound 21553] | 14 fold | 697 nM |
| CN1CCN(C(=O)N(Cc2ccc(-c3nnc(C(F)F)o3)cc2F)c2ccc(-c3ccncc3)cc2)CC1 [Compound 21541, N-(4-(5-(difluoromethyl)-1,3,4-oxadiazol-2-yl)-2-fluorobenzyl)-4-methyl-N-(4-(pyridin-4-yl)phenyl)piperazine-1-carboxamide] | 156 fold | 64 nM |
| Cn1ncc2cccc(N(Cc3ccc(-c4nnc(C(F)F)o4)cc3F)C(=O)N3CCS(=O)(=O)CC3)c21 [Compound 21708, N-(4-(5-(Difluoromethyl)-1,3,4-oxadiazol-2-yl)-2-fluorobenzyl)-N-(1-methyl-1H-indazol-7-yl)thiomorpholine-4-carboxamide 1,1-dioxide] | 167 fold | 60 nM |
| O=C(N1CCN(C2COC2)CC1)N(Cc1ccc(-c2nnc(C(F)F)o2)cc1)c1cccc(F)c1 [Compound 21936, N-(4-(5-(Difluoromethyl)-1,3,4-oxadiazol-2-yl)benzyl)-N-(3-fluorophenyl)-4-(oxetan-3-yl)piperazine-1-carboxamide] | 91 fold | 110 nM |
